According to ChEMBL document CHEMBL5113518, “Discovery of a Novel G-Quadruplex and Histone Deacetylase (HDAC) Dual-Targeting Agent for the Treatment of Triple-Negative Breast Cancer” (J Med Chem, 2022):
Active and inactive are the calls of the source. No cut-off for these calls is given here.

Assays:
Quadruplex DNA [1] = settings: dose 1.0 µM
Description: Binding affinity to 5' FAM and 3' TAMRA-labeled c-myc G4-quadruplex DNA Pu22 (unknown origin) assessed as change in melting temperature at 1 uM by fluorescence resonance energy transfer assay

[2] = molecular target: T1, Protein deacetylase HDAC6 (Homo sapiens, UniProt Q9UBN7); experiment: Inhibition of full length recombinant N-terminal GST-tagged human HDAC6 expressed in baculovirus infected Sf9 insect cells incubated for 50 mins by Glo- luminescence assay
T1 sequence (Q9UBN7 whole entry): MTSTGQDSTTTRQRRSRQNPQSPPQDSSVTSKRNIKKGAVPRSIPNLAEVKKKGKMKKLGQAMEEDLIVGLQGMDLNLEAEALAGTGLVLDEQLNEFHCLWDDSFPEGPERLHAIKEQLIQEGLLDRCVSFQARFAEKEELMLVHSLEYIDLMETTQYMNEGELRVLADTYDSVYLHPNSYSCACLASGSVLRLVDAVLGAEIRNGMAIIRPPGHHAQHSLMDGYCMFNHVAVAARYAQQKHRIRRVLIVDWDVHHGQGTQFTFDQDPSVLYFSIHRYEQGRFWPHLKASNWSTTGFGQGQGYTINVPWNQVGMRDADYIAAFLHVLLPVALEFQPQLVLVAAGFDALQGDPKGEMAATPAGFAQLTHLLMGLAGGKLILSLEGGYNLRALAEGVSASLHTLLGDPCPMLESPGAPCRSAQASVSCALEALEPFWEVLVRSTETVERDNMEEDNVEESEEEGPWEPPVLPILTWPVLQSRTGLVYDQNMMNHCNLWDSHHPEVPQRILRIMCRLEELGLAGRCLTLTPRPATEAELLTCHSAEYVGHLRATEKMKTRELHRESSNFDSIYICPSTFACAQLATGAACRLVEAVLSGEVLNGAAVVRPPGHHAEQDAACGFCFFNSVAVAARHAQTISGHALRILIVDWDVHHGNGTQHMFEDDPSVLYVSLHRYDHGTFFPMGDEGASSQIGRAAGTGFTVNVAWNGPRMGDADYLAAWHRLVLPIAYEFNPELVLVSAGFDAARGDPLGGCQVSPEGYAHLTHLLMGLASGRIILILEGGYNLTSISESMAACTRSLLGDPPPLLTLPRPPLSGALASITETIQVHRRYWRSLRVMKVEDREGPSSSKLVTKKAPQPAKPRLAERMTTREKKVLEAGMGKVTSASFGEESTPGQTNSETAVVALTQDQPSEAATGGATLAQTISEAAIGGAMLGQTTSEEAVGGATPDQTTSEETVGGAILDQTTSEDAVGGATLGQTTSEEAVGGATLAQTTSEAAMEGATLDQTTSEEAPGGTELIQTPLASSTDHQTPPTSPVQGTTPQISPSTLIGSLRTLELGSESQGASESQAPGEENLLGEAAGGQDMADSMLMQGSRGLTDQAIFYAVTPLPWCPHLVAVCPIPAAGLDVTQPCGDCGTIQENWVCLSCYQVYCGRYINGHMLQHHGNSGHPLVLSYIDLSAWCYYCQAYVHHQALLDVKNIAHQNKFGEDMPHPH

SUM-159-PT [3] = experiment: Induction of DNA damage in human SUM159PT at 1.25 to 5 uM assessed as increase in gamma-H2AX level and measured for 48 hrs by DAPI staining method; format: functional, cell-based; settings: dose 1.25-5 µM
MDA-MB-231 [4] = experiment: Antitumor activity against human MDA-MB-231 cells xenografted in BALB/c-nu/nu mouse assessed as tumor growth inhibition at 2.5 mg/kg, ip measured for 31 days; format: functional; settings: MDA-MB-231, 744 h, time 31 day, read-out: TGI
MDA-MB-231 [5] = experiment: Effect on metabolism in human MDA-MB-231 cells assessed as oxygen consumption rate at 2.5 uM measured after 48 hrs by seahorse XF24 analysis; format: functional, cell-based
Histone deacetylase 4 = Histone deacetylase 4 (Homo sapiens, UniProt P56524); experiment: Inhibition of full length recombinant N-terminal GST-tagged human HDAC4 (612 to end residues)expressed in baculovirus infected Sf9 insect cells incubated for 50 mins by Glo- luminescence assay
Chain of Histone deacetylase 4 (P56524 whole entry): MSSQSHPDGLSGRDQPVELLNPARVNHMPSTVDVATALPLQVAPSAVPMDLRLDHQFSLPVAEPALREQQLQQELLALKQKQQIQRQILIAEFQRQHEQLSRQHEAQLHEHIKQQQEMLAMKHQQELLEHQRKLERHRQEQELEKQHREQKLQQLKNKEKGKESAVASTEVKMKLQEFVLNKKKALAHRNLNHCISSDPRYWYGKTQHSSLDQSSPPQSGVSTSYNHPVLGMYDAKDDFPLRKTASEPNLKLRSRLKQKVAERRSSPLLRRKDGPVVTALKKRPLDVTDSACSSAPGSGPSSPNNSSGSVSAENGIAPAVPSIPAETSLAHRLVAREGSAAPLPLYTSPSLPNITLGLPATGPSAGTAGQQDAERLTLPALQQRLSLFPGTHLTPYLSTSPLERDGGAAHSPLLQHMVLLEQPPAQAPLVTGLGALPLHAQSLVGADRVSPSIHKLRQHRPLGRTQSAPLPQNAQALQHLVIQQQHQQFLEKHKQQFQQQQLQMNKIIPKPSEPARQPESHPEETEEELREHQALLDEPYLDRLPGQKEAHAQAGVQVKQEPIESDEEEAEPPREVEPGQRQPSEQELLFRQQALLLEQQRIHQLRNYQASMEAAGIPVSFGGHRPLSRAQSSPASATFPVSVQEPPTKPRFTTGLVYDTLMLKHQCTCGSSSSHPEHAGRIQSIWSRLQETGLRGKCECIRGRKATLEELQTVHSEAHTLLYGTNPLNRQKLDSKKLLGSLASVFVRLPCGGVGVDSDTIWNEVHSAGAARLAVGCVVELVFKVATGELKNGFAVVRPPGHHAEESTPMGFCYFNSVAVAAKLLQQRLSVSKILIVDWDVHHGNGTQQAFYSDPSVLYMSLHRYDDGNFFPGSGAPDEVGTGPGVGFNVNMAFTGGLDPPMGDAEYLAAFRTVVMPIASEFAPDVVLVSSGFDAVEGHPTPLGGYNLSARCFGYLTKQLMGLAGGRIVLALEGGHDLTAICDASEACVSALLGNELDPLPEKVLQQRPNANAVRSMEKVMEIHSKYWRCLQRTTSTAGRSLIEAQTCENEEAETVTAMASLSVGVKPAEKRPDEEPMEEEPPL

[6] = Toxicity in BALB/c-nu/nu mouse assessed as toxic sign at 2.5 mg/kg, ip measured for 31 days; format: organism-based; settings: in vivo, 744 h, time 31 day
Quadruplex DNA [7] = experiment: Binding affinity to 5' FAM and 3' TAMRA-labeled c-myc G4-quadruplex DNA HTG21 (unknown origin) assessed as change in melting temperature by fluorescence resonance energy transfer assay; format: nucleic-acid assay
MDA-MB-231 [8] = experiment: Induction of cell cycle arrest in human MDA-MB-231 cells assessed as accumulation at G2/M phase at 2.5 uM measured for 6 to 48 hrs; format: functional, cell-based; settings: time 6-48 hrs
[9] = molecular target: T2, Histone deacetylase (Homo sapiens) (UniProt Q13547+O15379+Q9UBN7+Q92769+Q9UQL6+Q8WUI4+Q9BY41+Q96DB2+P56524+Q9UKV0+Q969S8); experiment: Inhibition of HDAC in human SUM159PT cells assessed as increase in acetylated alpha-tubulin level at 1.25 to 5 uM by Western blot analysis; format: cell-based; settings: dose 1.25-5 µM
Histone deacetylase 1 = Histone deacetylase 1 (Homo sapiens, UniProt Q13547); experiment: Inhibition of full length recombinant C-terminal GST-tagged human HDAC1 expressed in baculovirus infected Sf9 insect cells incubated for 50 mins by Glo- luminescence assay
Chain of Histone deacetylase 1 (Q13547 whole entry): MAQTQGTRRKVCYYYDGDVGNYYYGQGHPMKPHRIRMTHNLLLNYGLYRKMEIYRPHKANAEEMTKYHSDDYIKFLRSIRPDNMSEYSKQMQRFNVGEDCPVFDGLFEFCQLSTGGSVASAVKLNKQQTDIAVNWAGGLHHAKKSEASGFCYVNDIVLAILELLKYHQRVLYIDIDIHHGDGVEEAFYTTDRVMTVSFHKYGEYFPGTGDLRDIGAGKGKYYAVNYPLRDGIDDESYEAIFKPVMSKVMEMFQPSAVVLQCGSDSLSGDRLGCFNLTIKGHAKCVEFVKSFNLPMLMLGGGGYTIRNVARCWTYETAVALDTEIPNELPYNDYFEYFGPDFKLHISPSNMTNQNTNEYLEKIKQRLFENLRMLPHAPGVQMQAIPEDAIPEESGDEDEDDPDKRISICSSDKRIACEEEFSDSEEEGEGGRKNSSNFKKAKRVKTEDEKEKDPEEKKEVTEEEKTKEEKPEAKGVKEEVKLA

MDA-MB-231 [10] = experiment: Inhibition of cell invasion in human MDA-MB-231 cells at 2.5 uM incubated for 48 hrs by crystal violet staining based transwell assay; format: functional
Quadruplex DNA [11] = experiment: Binding affinity to 5' FAM-labeled c-myc G4-quadruplex DNA HTG21 (unknown origin) assessed as dissociation constant by surface plasmon resonance assay; format: nucleic-acid assay
[12] = Stabilization of DNA Pu22 (unknown origin ) single strand assessed as G4-quadruplex formation up to 30 uM in presence of potassium ions by spectrum based circular dichroism analysis
BT-549 = experiment: Induction of DNA damage in human BT-549 at 1.25 to 5 uM assessed as increase in gamma-H2AX level and measured for 48 hrs by DAPI staining method; format: functional, cell-based; settings: dose 1.25-5 µM
Quadruplex DNA [13] = experiment: Binding affinity to 5' FAM-labeled c-myc G4-quadruplex DNA Pu22 (unknown origin) by fluorescence quench assay; format: nucleic-acid assay
Quadruplex DNA [14] = experiment: Binding affinity to 5' FAM and 3' TAMRA-labeled […] (unknown origin) assessed as change in melting temperature by fluorescence resonance energy transfer assay; format: nucleic-acid assay
[15] = molecular target: T2, Histone deacetylase (Homo sapiens); experiment: Inhibition of HDAC in human BT-549 cells assessed as increase in acetylated alpha-tubulin level at 1.25 to 5 uM by Western blot analysis; format: cell-based; settings: dose 1.25-5 µM
HeLa = experiment: Potency index, ratio of SAHA IC50 to test compound IC50 for inhibition of HDAC in human HeLa nuclear extract
MDA-MB-231 [16] = experiment: Antitumor activity against human MDA-MB-231 cells xenografted in BALB/c-nu/nu mouse assessed as reduction in tumor volume at 2.5 mg/kg, ip measured for 31 days; format: functional, organism-based; settings: time 31.0 day
Quadruplex DNA [17] = experiment: Binding affinity to 5' FAM-labeled […] (unknown origin) assessed as dissociation constant by surface plasmon resonance assay; format: nucleic-acid assay
SUM-159-PT [18] = experiment: Inhibition of colony formation in human SUM159PT cells measured for 7 days by crystal violet staining based assay; format: functional, cell-based; settings: dose 2.5 µM, time 7.0 day, DDE = dose-dependent effect

- ΔTm (Quadruplex DNA [1]): 16.7 °C
- IC50 [2]: 0.65 µM
- IC50 (Histone deacetylase 4): 2.64 µM
- ΔTm (Quadruplex DNA [7]): 2 °C
- inhibition [9]: Active
- IC50 (Histone deacetylase 1): 1.26 µM
- Kd (Quadruplex DNA [11]): > 10 µM
- Activity [12]: Active
- DC50 (Quadruplex DNA [13]): 0.4 µM
- ΔTm (Quadruplex DNA [14]): 1.2 °C
- inhibition [15]: Active
- Kd (Quadruplex DNA [17]): 4.5 µM
Structure (SMILES): CN(C)CCCNC(=O)c1ccc(/C=C2\CCn3c2nc2cc(N4CCN(CCCCCCCC(=O)NO)CC4)c(F)cc2c3=O)cc1.Cl
- Activity (SUM-159-PT [3]): Active
- inhibition in vivo at 2.5 mg/kg (MDA-MB-231 [4]): 69%
- Activity (MDA-MB-231 [5]): Active
- Activity [6]: Non-Toxic
- Activity (MDA-MB-231 [8]): Active
- inhibition (MDA-MB-231 [10]): Active
- Activity (BT-549): Active
- Ratio IC50 (HeLa): 20
- Activity (MDA-MB-231 [16]): Active
- inhibition (SUM-159-PT [18]): Dde
